The values that follow come from US20150210641A1, “NOVEL CYTOCHROME P450 INHIBITORS AND THEIR METHOD OF USE” (CORTENDO AB (PUBL), priority 2014, published 2015).

Common to all, as to format: cell-based
Assay [1] deals with T1, recombinant CYP-17 (Homo sapiens, UniProt P05093).
T1 construct: expressed in transfected cells
T1 sequence (P05093 1-508): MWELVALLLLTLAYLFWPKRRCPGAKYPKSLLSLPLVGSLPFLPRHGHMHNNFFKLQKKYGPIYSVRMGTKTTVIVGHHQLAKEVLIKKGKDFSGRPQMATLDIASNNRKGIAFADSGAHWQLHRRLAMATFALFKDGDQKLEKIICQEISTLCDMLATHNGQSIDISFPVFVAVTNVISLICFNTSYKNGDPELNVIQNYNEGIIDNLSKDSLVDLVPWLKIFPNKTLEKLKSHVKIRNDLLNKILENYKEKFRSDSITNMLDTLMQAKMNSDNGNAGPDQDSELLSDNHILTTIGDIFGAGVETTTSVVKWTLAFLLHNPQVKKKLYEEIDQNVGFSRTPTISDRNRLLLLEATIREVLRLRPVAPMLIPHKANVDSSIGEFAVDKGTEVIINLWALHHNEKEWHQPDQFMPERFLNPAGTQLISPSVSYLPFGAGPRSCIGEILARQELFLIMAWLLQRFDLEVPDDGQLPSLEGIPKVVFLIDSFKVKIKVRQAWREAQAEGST
Put plainly: Cyp17 assay: 3H-acetic acid release from [21-3H] 17α-hydroxyl-Pregnenolone in AD293 cells. As to conditions: AD293 cells stably over-expressing recombinant CYP-17; eight concentrations 10 μM to 4.5 nM. The procedure:
Cyp17 assay protocol: AD293 cells that stably over-express recombinant CYP-17 were seeded in 96 well plates coated with poly D-lysine (15,000 cell per well) and incubated at 37° C. for 24 hours in Dulbecco's Modified Eagle Medium (DMEM) with Fetal Bovine Serum (FBS) that is stripped of hormones by charcoal treatment. The media is then removed, the cells are washed once with Phosphate buffer saline solution, and 50 μL Dulbecco's Modified Eagle Medium (DMEM) with Fetal Bovine Serum (FBS) that is stripped of hormones by charcoal treatment is added. Compounds of the disclosure are then added to the wells in eight concentration spanning 10 μM to 4.5 nM, and the plates are incubated for an additional 60 minutes at 37° C. [21-^3H] 17α-hydroxyl-Pregnenolone is then added (50 nCi per well, 31.25 nM) and the plates are incubated for an additional 4 hours at 37° C. The media is then collected, 200 μL of chloroform is added, and the mixture is shaken for 1 hour. The aqueous layer is then separated and analyzed for the presence of ^3H-acetic acid using a Perkin Elmer Topcount NXT to determine IC50s of the compounds of the disclosure.

Assay [2] concerns the target T2, recombinant CYP-21 (Homo sapiens, UniProt P08686).
T2 construct: expressed in transfected cells
T2 sequence (P08686 1-495): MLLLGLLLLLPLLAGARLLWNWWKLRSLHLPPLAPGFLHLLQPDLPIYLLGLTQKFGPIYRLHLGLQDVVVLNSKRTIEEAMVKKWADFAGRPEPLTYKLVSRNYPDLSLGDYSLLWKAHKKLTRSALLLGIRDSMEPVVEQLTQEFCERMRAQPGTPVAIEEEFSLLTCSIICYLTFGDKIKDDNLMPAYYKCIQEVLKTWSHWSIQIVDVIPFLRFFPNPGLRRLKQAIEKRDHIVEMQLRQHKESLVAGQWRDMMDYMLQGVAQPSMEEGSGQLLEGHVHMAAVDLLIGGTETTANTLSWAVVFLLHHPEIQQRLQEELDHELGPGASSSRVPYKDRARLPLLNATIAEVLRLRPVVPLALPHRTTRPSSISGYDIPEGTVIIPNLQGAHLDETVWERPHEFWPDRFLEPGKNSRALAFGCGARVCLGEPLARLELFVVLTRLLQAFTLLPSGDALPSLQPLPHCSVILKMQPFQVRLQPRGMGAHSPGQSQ
Put plainly: Cyp21 assay: 11-deoxycortisol formation from 17-OH Progesterone in AD293 cells, LC/MS. The note with it: AD293 cells stably over-expressing recombinant CYP-21; eight concentrations 10 μM to 4.5 nM. Here is the method: Cyp21 assay protocol: AD293 cells that stably over-express recombinant CYP-21 were seeded in 96 well plates coated with poly D-lysine (10,000 cell per well) and incubated at 37° C. for 24 hours in Dulbecco's Modified Eagle Medium (DMEM) with Fetal Bovine Serum (FBS) that is stripped of hormones by charcoal treatment. The media is then removed, the cells are washed once with Phosphate buffer saline solution, and 50 μL Dulbecco's Modified Eagle Medium (DMEM) with Fetal Bovine Serum (FBS) that is stripped of hormones by charcoal treatment is added. Compounds of the disclosure are then added to the wells in eight concentration spanning 10 μM to 4.5 nM, and the plates are incubated for an additional 60 minutes at 37° C. 17-OH Progesterone is then added ([…]) and the plates are incubated for an additional 45 minutes at 37° C. After incubation, 50 uL of the supernatant (medium) is transferred into a fresh plate and 150 uL of an acetonitrile solution containing 200 ng/ml of Telmisartan is added. The sample is mixed and then placed in a centrifuge at 2000 rpm for 5 minutes.

The target of assay [3] is T3, recombinant CYP-11 (Homo sapiens, UniProt P15538).
T3 construct: expressed in transfected cells
T3 sequence (P15538 25-503): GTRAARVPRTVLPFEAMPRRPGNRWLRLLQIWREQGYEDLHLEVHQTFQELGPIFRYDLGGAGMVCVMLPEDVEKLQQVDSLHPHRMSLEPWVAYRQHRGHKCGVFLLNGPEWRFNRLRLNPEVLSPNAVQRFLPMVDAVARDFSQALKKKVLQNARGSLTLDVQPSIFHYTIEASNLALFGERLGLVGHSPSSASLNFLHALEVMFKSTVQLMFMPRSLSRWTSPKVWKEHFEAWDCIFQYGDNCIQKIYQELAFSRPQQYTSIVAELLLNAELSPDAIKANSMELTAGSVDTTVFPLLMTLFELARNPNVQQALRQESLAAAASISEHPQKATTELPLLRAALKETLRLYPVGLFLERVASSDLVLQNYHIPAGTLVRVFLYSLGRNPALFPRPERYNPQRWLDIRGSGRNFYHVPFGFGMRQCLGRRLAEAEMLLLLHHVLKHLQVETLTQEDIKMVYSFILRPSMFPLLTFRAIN
The assay is described as follows: Cyp11 assay: cortisol formation from 11-deoxycortisol in AD293 cells, LC/MS. As to conditions: AD293 cells stably over-expressing recombinant CYP-11; eight concentrations 10 μM to 4.5 nM. Here is the method:
Cyp11 assay protocol: AD293 cells that stably over-express recombinant CYP-11 were seeded in 96 well plates coated with poly D-lysine (15,000 cell per well) and incubated at 37° C. for 24 hours in Dulbecco's Modified Eagle Medium (DMEM) with Fetal Bovine Serum (FBS) that is stripped of hormones by charcoal treatment. The media is then removed, the cells are washed once with Phosphate buffer saline solution, and 50 μL Dulbecco's Modified Eagle Medium (DMEM) with Fetal Bovine Serum (FBS) that is stripped of hormones by charcoal treatment is added. Compounds of the disclosure are then added to the wells in eight concentration spanning 10 μM to 4.5 nM, and the plates are incubated for an additional 60 minutes at 37° C. 11-deoxycortisol is then added ([…]) and the plates are incubated for an additional 12 hours at 37° C. After incubation, 50 uL of the supernatant (medium) is transferred into a fresh plate and 150 uL of an acetonitrile solution containing 200 ng/ml of Telmisartan is added. The sample is mixed and then placed in a centrifuge at 2000 rpm for 5 minutes. 100 uL of the supernatant is transferred into a fresh 96 well deep well plate, 100 uL of 1:1 methanol: water was added, the solution was mixed and then analyzed by LC/MS for the presence of cortisol using an Agilent 1200 RRLC/ABSCIEX API4000 LC-MS or Shimadzu Prominance/ABSCIEX API4000 LC-MS to determine IC50s of the compounds of the disclosure.

pIC50: −log10 of the molar value. Where only a bound is given, the exact number is not on record here.

One may read the pIC50 as −log10 of the IC50, conventionally taken in molar units. `COc1cc(F)ccc1-c1ccc(C(c2ccncc2)N2CCC(O)CC2)cc1` (stereo not drawn) [Entry 29, 1-((4′-fluoro-2′-methoxy-[1,1′-biphenyl]-4-yl)(pyridin-4-yl)methyl)piperidin-4-ol]: the figures for the pIC50 in assay [1], in assay [2] and in assay [3] were 7.92, 5.40 and not above 5.00, respectively.

With `COc1cc(F)ccc1-c1ccc(C(c2ccncc2)N2CCN(C(C)=O)CC2)cc1` (stereo not drawn) [Entry 27, 1-(4-((4′-fluoro-2′-methoxy-[1,1′-biphenyl]-4-yl)(pyridin-4-yl)methyl)piperazin-l-yl)ethanone], the pIC50 was 7.66 in assay [1], not above 5.00 in assay [2] and not above 5.00 in assay [3].

`COc1ccc(-c2ccc(C(c3ccncc3)N3CCCCC3)cc2)cc1OC` (stereo not drawn) [Entry 9]: the pIC50 in assay [1] is 7.85; in assay [2] it was 5.92.

Take `COc1cc(F)ccc1-c1ccc(C(c2ccncc2)N2CCN(C3CCCC3)CC2)cc1` (stereo not drawn) [Entry 21, 1-cyclopentyl-4-((4′-fluoro-2′-methoxy-[1,1′-biphenyl]-4-yl)(pyridin-4-yl)methyl)piperazine]: the pIC50 in assay [1] was 6.05; in assay [2] it was not above 5.00; in assay [3] it was not above 5.00.

As to `COc1cc(F)ccc1-c1ccc(C(F)(F)c2ccncc2)cc1` [Entry 2, 4-[Difluoro-(4′-fluoro-2′-methoxy-biphenyl-4-yl)-methyl]-pyridine], the results for the pIC50 in assay [1], in assay [2] and in assay [3] were 5.66, 6.63 and not above 5.00, respectively.

In the case of `COc1cc(F)ccc1-c1ccc(C2(c3ccncc3)OCC(C)(C)CO2)cc1` [Entry 6, 4-[2-(4′-Fluoro-2′-methoxy-biphenyl-4-yl)-5,5-dimethyl-[1,3]dioxan-2-yl]-pyridine], the pIC50 in assay [1] was 6.22; in assay [2], 5.66; in assay [3], not above 5.00.

For the compound `COc1cc(F)ccc1-c1ccc(C2(c3ccncc3)OCC(C)CO2)cc1` (stereo not drawn) [Entry 5, 4-[2-(4′-Fluoro-2′-methoxy-biphenyl-4-yl)-5-methyl-[1,3]dioxan-2-yl]-pyridine], the pIC50 is 6.90 in assay [1], 6.28 in assay [2] and not above 5.00 in assay [3].

In the case of `COc1ccc(-c2ccc(C(c3ccncc3)N3CCOCC3)cc2)cc1OC` (stereo not drawn) [Entry 10, 4-((3′,4′-Dimethoxy-[1,1′-biphenyl]-4-yl)(pyridin-4-yl)methyl)morpholine], the pIC50 in assay [1] is 8.00; in assay [2], 5.74.

For the compound `COc1cc(F)ccc1-c1ccc(C(F)c2ccncc2)cc1` (stereo not drawn) [Entry 1, 4-[Fluoro-(4′-fluoro-2′-methoxy-biphenyl-4-yl)-methyl]-pyridine], the pIC50 in assay [1] was 6.66; in assay [2], 5.82; in assay [3], not above 5.00.

As for `COc1ccc(-c2ccc(C(F)c3ccncc3)cc2)cc1OC` (stereo not drawn) [Entry 7], the values for the pIC50 in assay [1], in assay [2] and in assay [3] were 7.85, 6.03 and not above 5.00, respectively.

For the compound `COc1cc(F)ccc1-c1ccc(C2(c3ccncc3)OCCO2)cc1` [Entry 4, 4-[2-(4′-Fluoro-2′-methoxy-biphenyl-4-yl)-[1,3]dioxolan-2-yl]-pyridine], the pIC50 in assay [2] is 6.49; in assay [3], not above 5.00.

`CCN1CCN(C(c2ccncc2)c2ccc(-c3ccc(F)cc3OC)cc2)CC1` (stereo not drawn) [Entry 28, 1-ethyl-4-((4′-fluoro-2′-methoxy-[1,1′-biphenyl]-4-yl)(pyridin-4-yl)methyl)piperazine]: the results for the pIC50 in assay [1], in assay [2] and in assay [3] were 6.93, not above 5.00 and not above 5.00, respectively.

In the case of `COc1ccc(-c2ccc(C(OC(C)C)c3ccncc3)cc2)cc1OC` (stereo not drawn) [Entry 13, 4-(isopropoxy(3′,4′-dimethoxy-[1,1′-biphenyl]-4-yl)methyl)pyridine], the pIC50 in assay [1] is 8.00; in assay [2], 6.68.

In the case of `COc1ccc(-c2ccc(C(OC)c3ccncc3)cc2)cc1OC` (stereo not drawn) [Entry 15, 4-(methoxy(3′,4′-dimethoxy-[1,1′-biphenyl]-4-yl)methyl)pyridine], the results for the pIC50 in assay [1] and in assay [2] were 7.96 and 6.74, respectively.

Take `COc1cc(F)ccc1-c1ccc(C2(c3ccncc3)OCCO2)cc1` [Entry 3, 4-[2-(4′-Fluoro-2′-methoxy-biphenyl-4-yl)-[1,3]dioxolan-2-yl]-pyridine]: the pIC50 in assay [2] is 6.09; in assay [3], 5.70.

Turning to `CCOC(c1ccncc1)c1ccc(-c2ccc(OC)c(OC)c2)cc1` (stereo not drawn) [Entry 14, 4-(ethoxy(3′,4′-dimethoxy-[1,1′-biphenyl]-4-yl)methyl)pyridine], the values for the negative-log IC50 (pIC50) in assay [1] and in assay [2] were 7.59 and 6.72, respectively.

For `COc1ccc(-c2ccc(C(c3ccncc3)N3CCN(C)CC3)cc2)cc1OC` (stereo not drawn) [Entry 12, 1-((3′4′-dimethoxy-[1,1′-biphenyl]-4-yl)(pyridin-4-yl)methyl)-4-methylpiperazine], the pIC50 in assay [1] was 7.11; in assay [2], not above 5.00.

With `COc1ccc(-c2ccc(C(c3ccncc3)N3CCCC3)cc2)cc1OC` (stereo not drawn) [Entry 11, 4-((3′4′-dimethoxy-[1,1′-biphenyl]-4-yl)(pyrrolidin-1-yl)methyl)pyridine], the pIC50 is 8.00 in assay [1] and 5.60 in assay [2].
